Experimental data from ChEMBL document CHEMBL1201862, “PubChem BioAssay data set” (2004).
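All cell lines were grown in 96-well plates and treated with compound for 48 hours. GI50 = concentration required for 50% inhibition of growth.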 Activity calls are given as the source filed them. Cut-off read from the data, not from the text of the source: active = GI50 up to about 1.1 µM and inactive = higher.

Experiments:
Experiment in all cases: inhibition of tumour cell growth, NCI panel, 48 h
CCRF-CEM = system: CCRF-CEM
U-251 = system: U-251
MOLT-4 = system: MOLT-4
IGROV-1 = system: IGROV-1
Malme-3M = system: Malme-3M
HCC 2998 = system: HCC 2998
HCT-116 = system: HCT-116
NCI-H522 = system: NCI-H522
SK-MEL-28 = system: SK-MEL-28
SK-OV-3 = system: SK-OV-3
RPMI-8226 = system: RPMI-8226
M14 = system: M14
786-0 = system: 786-0
SK-MEL-2 = system: SK-MEL-2
A549 = system: A549
K562 = system: K562
HCT-15 = system: HCT-15
A498 = system: A498

SMILES | GI50 (CCRF-CEM) | GI50 (U-251) | GI50 (MOLT-4) | GI50 (IGROV-1) | GI50 (Malme-3M) | GI50 (HCC 2998) | GI50 (HCT-116) | GI50 (NCI-H522) | GI50 (SK-MEL-28) | GI50 (SK-OV-3) | GI50 (RPMI-8226) | GI50 (M14) | GI50 (786-0) | GI50 (SK-MEL-2) | GI50 (A549) | GI50 (K562) | GI50 (HCT-15) | GI50 (A498)
CCOC(=O)C(=O)Nc1c(C)cccc1CC | > 100 µM (inactive) | > 100 µM (inactive) | > 100 µM (inactive) | > 100 µM (inactive) | > 100 µM (inactive) | > 100 µM (inactive) | > 100 µM (inactive) | > 100 µM (inactive) | > 100 µM (inactive) | > 100 µM (inactive) | > 100 µM (inactive) | > 100 µM (inactive) | > 100 µM (inactive) | > 100 µM (inactive) | > 100 µM (inactive) | > 100 µM (inactive) |  | 
CC1(C)CC(C)(C)CC(O)(C2(O)CC(C)(C)CC(C)(C)C2)C1 | > 100 µM (inactive) | > 100 µM (inactive) | > 100 µM (inactive) | > 100 µM (inactive) | > 100 µM (inactive) | > 100 µM (inactive) | > 100 µM (inactive) | > 100 µM (inactive) | > 100 µM (inactive) | > 100 µM (inactive) | > 100 µM (inactive) | > 100 µM (inactive) | > 100 µM (inactive) |  | > 100 µM (inactive) | > 100 µM (inactive) | > 100 µM | 
CCOC(=O)C1C(NC(N)=O)N(Cc2ccccc2)C(=O)N1Cc1ccccc1 (stereo not drawn) | > 100 µM (inactive) | 17.3 µM (inactive) | > 100 µM (inactive) | > 100 µM (inactive) | > 100 µM (inactive) | > 100 µM (inactive) | > 100 µM (inactive) | > 100 µM (inactive) | > 100 µM (inactive) | > 100 µM (inactive) | > 100 µM (inactive) | > 100 µM (inactive) | > 100 µM (inactive) | > 100 µM (inactive) | > 100 µM (inactive) | > 100 µM (inactive) | > 100 µM | 
N#CN1CCC=C(c2cc3ccccc3[nH]2)C1 | 188 µM (inactive) | 434 µM (inactive) | 230 µM (inactive) | 277 µM (inactive) | 442 µM (inactive) | 185 µM (inactive) | 285 µM (inactive) | 109 µM (inactive) | 382 µM (inactive) | > 448 µM (inactive) | 170 µM (inactive) |  | > 448 µM (inactive) | 279 µM (inactive) | 394 µM (inactive) | 421 µM (inactive) | 370 µM | 
CC1CC[C@]2(C(=O)O)CCC3(C)C(=CC(=O)C4[C@@]5(C)CCC(=O)C(C)(C)C5CC[C@]43C)[C@@H]2[C@H]1C (stereo partly drawn) | 14.4 µM (inactive) | 27.4 µM (inactive) | 11.5 µM (inactive) | 26.9 µM (inactive) | 28.8 µM (inactive) |  | 18.1 µM (inactive) | 18.4 µM (inactive) | 18 µM (inactive) | 34.5 µM (inactive) |  | 29.5 µM (inactive) | 31.8 µM (inactive) |  | 24.5 µM (inactive) | 23.6 µM (inactive) |  | 32.4 µM (inactive)
O=C1/C(=C/c2cccc([N+](=O)[O-])c2)COc2ccccc21 | 1.53 µM (inactive) | 2.62 µM (inactive) | 2.31 µM (inactive) | 7.85 µM (inactive) | 16.1 µM (inactive) |  | 1.76 µM (inactive) | 1.67 µM (inactive) | 2.92 µM (inactive) | 30.2 µM (inactive) | 1.01 µM (active) | 1.83 µM (inactive) | 1.63 µM (inactive) | 6.1 µM (inactive) | 41.2 µM (inactive) | 1.46 µM (inactive) | 1.55 µM | 40.8 µM (inactive)
CN(C)CC(C)(C)C(=O)/C=C/c1ccccc1 | 3.39 µM (inactive) | 16.3 µM (inactive) | 14.4 µM (inactive) | 12.9 µM (inactive) | 11.6 µM (inactive) |  | 13.5 µM (inactive) | 10.3 µM (inactive) | 16 µM (inactive) |  | 12.2 µM (inactive) | 13.8 µM (inactive) | 15.4 µM (inactive) |  | 28.8 µM (inactive) | 5.13 µM (inactive) | 12.6 µM | 17 µM (inactive)
CN(C)CCn1cnc2sc3ccccc3c21 | > 100 µM (inactive) | > 100 µM (inactive) | > 100 µM (inactive) | > 100 µM (inactive) | > 100 µM (inactive) | > 100 µM (inactive) | > 100 µM (inactive) | > 100 µM (inactive) | > 100 µM (inactive) | > 100 µM (inactive) |  | > 100 µM (inactive) | > 100 µM (inactive) | > 100 µM (inactive) | > 100 µM (inactive) | > 100 µM (inactive) | > 100 µM | > 100 µM (inactive)
NC(=S)N/N=C(\CC1OC(=O)c2ccccc21)c1ccc(Cl)cc1 (stereo not drawn) |  | 22.5 µM (inactive) | 61.5 µM (inactive) | 40.3 µM (inactive) | 30.6 µM (inactive) | 23.9 µM (inactive) | 24.4 µM (inactive) | 20.9 µM (inactive) | 45.8 µM (inactive) | 42.8 µM (inactive) | 75.3 µM (inactive) | 43.2 µM (inactive) | 43.4 µM (inactive) |  | 48.2 µM (inactive) | 84.1 µM (inactive) | 39.8 µM | 
